Tests used:
[1] = test system: Gram-negative bacteria (그람음성균): E.coli, ESBL-EC; type: cell-based; conditions: 1 μM; white light 25 mW/cm2, 10 min
[2] = test system: S.aureus (그람양성, ATCC 25923); assay: Photodynamic antibacterial effect, agar plate colonies; type: cell-based; conditions: 1 μM; white light 25 mW/cm2, 10 min
all strains (모든 균주) = assay: Photodynamic antibacterial effect, all strains; type: cell-based; conditions: 3 μM, with or without white light
[3] = test system: ESBL E.coli (ESBL-EC, 그람 음성, ATCC BAA-198); assay: microbe, parasite or virus in culture; conditions: Escherichia coli, ATCCBAA198, 10 min, read-out: inhibition of ESBL-EC growth
[4] = test system: ESBL E.coli (ESBL-EC, 그람 음성, ATCC BAA-198); conditions: same conditions: 3 μM, white light 25 mW/cm2, 10 min

Row | SMILES | photodynamic antibacterial effect against Gram-negative bacteria [1] | photodynamic antibacterial activity against Gram-positive bacteria [2] | bacterial colonies (all strains (모든 균주)) | inhibition at 3 µM [3] [%] | photodynamic antibacterial effect [4]
1 | C=Cc1c(C)c2cc3nc(c(CC(=O)O)c4[nH]c(cc5nc(cc1[nH]2)C(C)=C5CC)c(C)c4C(=O)O)C(CCC(=O)O)C3C (stereo not shown) [Ce6] | 유의한 효과를 확인할 수 없었다 | 광역학적 항균 활성을 보였지만 |  |  | 
2 | C(=Cc1ccnc2ccccc12)c1ccc(-c2ccc(N(c3ccccc3)c3ccccc3)cc2)s1 [DQVTA] |  |  | 변하지 않음 |  | 
3 | CN(C)c1ccc2nc3ccc(=[N+](C)C)cc-3sc2c1 [MB, 메틸렌 블루] | 유의한 효과를 확인할 수 없었다 | 광역학적 항균 활성을 보였지만 |  | ~50 | 유의한 광역학적 항균 효과를 나타내지 않았고
